Laboratory results as given in patent US20110039762A1, “TARGETED ANTIMICROBIAL MOIETIES” (C3 JIAN, INC., priority 2009, published 2011).
Entries after “also recorded” stand apart in the source; their conditions may differ. Ends that are not written are not given here.

Columns and labels:
microorganisms = assay: Peptides having multiple activities (targeting/binding, antimicrobial, growth or phenotype altering)
Text: In certain embodiments, peptides described herein can have multiple activities. Thus for example, a peptide can have both binding/targeting activity and antimicrobial activity. Such peptides can be used, e.g., in a chimeric construct, for any or all of these properties. Thus, for example, a peptide designated “B” in Table 8 can be used as a targeting peptide. If it is also designated G or M it can also be used for antimicrobial activity.

[1] = system: microorganisms (e.g., bacteria, yeasts, fungi); assay: Targeting peptide binding to target microorganisms (Table 3); conditions: preferably 1x PBS; for Target(s): microorganism(s) the targeting peptide binds
S. epidermidis [2] = assay: Kill or inhibit growth/proliferation; morphology, biofilm and growth disruption (Tables 5, 6); assay type: cell-based, Staphylococcus epidermidis; parameters: key: A: Peptide aggregates; B: Less hyphal formation; Clumps; Diffuse clumps and small polyps; F: Diffuse growth; H: Thin; I: Growth inhibition; Microcolony formation; Rippled; Small polyps; Thick; W: Halo formation on top, microlonies on bottom; further: test concentration or dose not given here
B. subtilis [3] = assay: MIC (broth microdilution); assay type: cell-based, Bacillus subtilis
Procedure: (§1) Typically, the in vitro antimicrobial activity of antimicrobial agents is tested using standard NCCLS bacterial inhibition assays, or MIC tests (see, National Committee on Clinical Laboratory Standards “Performance Standards for Antimicrobial Susceptibility Testing,” NCCLS Document M100-S5 Vol. 14, No. 16, December 1994; “Methods for dilution antimicrobial susceptibility test for bacteria that grow aerobically-Third Edition,” Approved Standard M7-A3, National Committee for Clinical Standards, Villanova, Pa.).
(§2) Briefly, ˜1×10^5 cfu/mL bacteria were diluted in TH (S. mutans), or Mueller-Hinton (MH) broth (all other organisms) and distributed to 96-well plates. Serially-diluted (2-fold) peptides were then added and the plates incubated at 37° C. for 18-24 h. […] All experiments were conducted 10 times.

MRSA [4] = assay: Kill or inhibit growth/proliferation; morphology, biofilm and growth disruption (Tables 5, 6); assay type: cell-based, Methicillin-resistant Staphylococcus aureus; parameters: key: A: Peptide aggregates; B: Less hyphal formation; Clumps; Diffuse clumps and small polyps; F: Diffuse growth; H: Thin; I: Growth inhibition; Microcolony formation; Rippled; Small polyps; Thick; W: Halo formation on top, microlonies on bottom; further: test concentration or dose not given here
E. faecalis = assay: as above; assay type: cell-based, Enterococcus faecalis; parameters: key: A: Peptide aggregates; B: Less hyphal formation; Clumps; Diffuse clumps and small polyps; F: Diffuse growth; H: Thin; I: Growth inhibition; Microcolony formation; Rippled; Small polyps; Thick; W: Halo formation on top, microlonies on bottom; further: test concentration or dose not given here
B. subtilis [5] = assay: as above; assay type: cell-based, Bacillus subtilis; parameters: key: A: Peptide aggregates; B: Less hyphal formation; Clumps; Diffuse clumps and small polyps; F: Diffuse growth; H: Thin; I: Growth inhibition; Microcolony formation; Rippled; Small polyps; Thick; W: Halo formation on top, microlonies on bottom
T. rubrum = assay: MIC (broth microdilution); assay type: cell-based, Trichophyton rubrum
Procedure: as §1, §2

S. mutans [6] = assay type: cell-based, Streptococcus mutans; conditions: S. mutans
Procedure: as §1, §2

S. epidermidis [7] = assay type: cell-based, Staphylococcus epidermidis; conditions: S. epidermidis
Procedure: as §1, §2

M. luteus = assay: Kill or inhibit growth/proliferation; morphology, biofilm and growth disruption (Tables 5, 6); assay type: cell-based, Micrococcus luteus; parameters: key: A: Peptide aggregates; B: Less hyphal formation; Clumps; Diffuse clumps and small polyps; F: Diffuse growth; H: Thin; I: Growth inhibition; Microcolony formation; Rippled; Small polyps; Thick; W: Halo formation on top, microlonies on bottom; further: test concentration or dose not given here
S. pneumoniae = assay: as above; assay type: cell-based, Streptococcus pneumoniae; parameters: key: A: Peptide aggregates; B: Less hyphal formation; Clumps; Diffuse clumps and small polyps; F: Diffuse growth; H: Thin; I: Growth inhibition; Microcolony formation; Rippled; Small polyps; Thick; W: Halo formation on top, microlonies on bottom; further: test concentration or dose not given here
S. mutans [8] = assay: as above; assay type: cell-based, Streptococcus mutans; parameters: key: A: Peptide aggregates; B: Less hyphal formation; Clumps; Diffuse clumps and small polyps; F: Diffuse growth; H: Thin; I: Growth inhibition; Microcolony formation; Rippled; Small polyps; Thick; W: Halo formation on top, microlonies on bottom
E. coli = assay: as above; assay type: cell-based, Escherichia coli; parameters: key: A: Peptide aggregates; B: Less hyphal formation; Clumps; Diffuse clumps and small polyps; F: Diffuse growth; H: Thin; I: Growth inhibition; Microcolony formation; Rippled; Small polyps; Thick; W: Halo formation on top, microlonies on bottom
P. mirabilis = assay: as above; assay type: cell-based; parameters: key: A: Peptide aggregates; B: Less hyphal formation; Clumps; Diffuse clumps and small polyps; F: Diffuse growth; H: Thin; I: Growth inhibition; Microcolony formation; Rippled; Small polyps; Thick; W: Halo formation on top, microlonies on bottom; further: test concentration or dose not given here
A. niger = assay: MIC (broth microdilution); assay type: cell-based, Aspergillus niger
Procedure: as §1, §2

MRSA [9] = assay: MIC (broth microdilution); assay type: cell-based, Methicillin-resistant Staphylococcus aureus
Procedure: as §1, §2

P. aeruginosa = assay: Kill or inhibit growth/proliferation; morphology, biofilm and growth disruption (Tables 5, 6); assay type: cell-based, Pseudomonas aeruginosa; parameters: key: A: Peptide aggregates; B: Less hyphal formation; Clumps; Diffuse clumps and small polyps; F: Diffuse growth; H: Thin; I: Growth inhibition; Microcolony formation; Rippled; Small polyps; Thick; W: Halo formation on top, microlonies on bottom; further: test concentration or dose not given here
F. nucleatum = assay: as above; assay type: cell-based, Fusobacterium nucleatum; parameters: key: A: Peptide aggregates; B: Less hyphal formation; Clumps; Diffuse clumps and small polyps; F: Diffuse growth; H: Thin; I: Growth inhibition; Microcolony formation; Rippled; Small polyps; Thick; W: Halo formation on top, microlonies on bottom; further: test concentration or dose not given here
P. gingivalis = assay: as above; assay type: cell-based, Porphyromonas gingivalis; parameters: key: A: Peptide aggregates; B: Less hyphal formation; Clumps; Diffuse clumps and small polyps; F: Diffuse growth; H: Thin; I: Growth inhibition; Microcolony formation; Rippled; Small polyps; Thick; W: Halo formation on top, microlonies on bottom; further: test concentration or dose not given here
[10] = binding in aqueous buffers depending on peptide solubility
Wherever Organism, effect (morphology, biofilm and growth disruption) is given: test concentration or dose not given here.
Wherever Organism, effect is given: test concentration or dose not given here.

Substance | Activities (microorganisms) | Organism, effect (S. epidermidis [2]) | Organism, effect (MRSA [4]) | MIC (T. rubrum) | Organism, effect (M. luteus) | Organism, effect (S. pneumoniae) | Organism, effect (S. mutans [8]) | Organism, effect (E. coli) | Organism, effect (P. mirabilis) | other results
WSRVPGHSDTGWKVWHRW-NH2 [PF-547] | G B M | S. epidermidis (R) | MRSA (M) | T. rubrum, 25 μM | – | – | – | – | – | Target(s) ([1]; peptide binding conducted in aqueous buffers varied by peptide solubility): S. epidermidis and E. coli and P. aeruginosa and C. albicans and MRSA and S. pneumoniae and E. faecalis; MIC (B. subtilis [3]): B. subtilis, 25 μM; Organism, effect (E. faecalis): E. faecalis (R); Organism, effect (B. subtilis [5]): B. subtilis (I); MIC (S. mutans [6]): S. mutans, 12.5 μM
MIRIRSPTKKKLNRNSISDWKSNTSGRFFY [PF-283] | G B M | S. epidermidis (H) | – | T. rubrum, 50 μM | – | – | – | – | – | Target(s) [1, 10]: B. subtilis; also recorded: B. fragilis; also recorded: C. difficile; MIC (B. subtilis [3]): B. subtilis, 50 μM; MIC (S. epidermidis [7]): S. epidermidis, 50 μM; Organism, effect (B. subtilis [5]): B. subtilis (H)
PF-612: peptide having multiple activities (GTTLKYGLERQLKIDIHPEITIINLNGGADEFAKL; Peptide with targeting and/or antimicrobial activity) | G B | S. epidermidis (C) | MRSA (C) | – | M. luteus (A) | S. pneumoniae (C) | S. mutans (F) | E. coli (C) | P. mirabilis (C) | –
PF-578: peptide having multiple activities (chain 1 QKANLRIGFTYTSDSNVCNLTFALLGSK; chain 2 QKANLRIGFTYTSDSNVCNLTFALLGSK; Peptide with targeting and/or antimicrobial activity) | G B | S. epidermidis (D) | MRSA (C) | – | M. luteus (C) | S. pneumoniae (D) | S. mutans (D) | E. coli (C) | P. mirabilis (C) | –
PF-624 (VFLLDSYCFVKINL; Peptide with targeting and/or antimicrobial activity) | – | S. epidermidis (D) | MRSA (C) | – | M. luteus (C) | S. pneumoniae (D) | S. mutans (D) | E. coli (C) | P. mirabilis (C) | –
PF-770: peptide having multiple activities (GVGIGFIMMGVVGYAVKLVHIPIRYLIV; Peptide with targeting and/or antimicrobial activity) | G B | – | – | – | – | – | – | – | – | Organism, effect (morphology, biofilm and growth disruption) (M. luteus): M. luteus (C); Organism, effect (morphology, biofilm and growth disruption) (S. pneumoniae): S. pneumoniae (C); Organism, effect (morphology, biofilm and growth disruption) (S. epidermidis [2]): S. epidermidis (D); Organism, effect (morphology, biofilm and growth disruption) (S. mutans [8]): S. mutans (D); Organism, effect (morphology, biofilm and growth disruption) (MRSA [4]): MRSA (D); Organism, effect (morphology, biofilm and growth disruption) (E. coli): E. coli (C); Organism, effect (morphology, biofilm and growth disruption) (P. mirabilis): P. mirabilis (C)
VLPFPAIPLSRRRACVAAPRPRSRQRAS [PF-168] | G B M | – | MRSA (I) | T. rubrum, 50 μM | – | – | – | – | – | MIC (A. niger): A. niger, 50 μM; Target(s) [1, 10]: S. epidermidis and M. luteus and E. coli and C. albicans and MRSA and C. jeikeium and C. jejuni; MIC (MRSA [9]): MRSA , 50 μM; Organism, effect (P. aeruginosa): P. aeruginosa (H)
PF-C075: peptide having multiple activities (KALVISVFAIVFSIIFVKFFYWRDKK; Peptide with targeting and/or antimicrobial activity) | G B | – | – | – | – | – | – | – | – | Target(s) (microorganisms bound by the targeting peptide) ([1]; peptide binding in aqueous buffers varied by peptide solubility): A. naeslundii; also recorded: F. nucleatum; also recorded: P. gingivalis; also recorded: S. mutans; also recorded: T. denticola; Organism, effect (morphology, biofilm and growth disruption) (F. nucleatum): F. nucleatum (T); Organism, effect (morphology, biofilm and growth disruption) (P. gingivalis): P. gingivalis (R); Organism, effect (morphology, biofilm and growth disruption) (S. mutans [8]): S. mutans (F)
PF-634: peptide having multiple activities (chain 1 MPKARPVNHNKKKSKITIKSNFTLFYMFNP; chain 2 MPKARPVNHNKKKSKITIKSNFTLFYMFNP; Peptide with targeting and/or antimicrobial activity) | G B | S. epidermidis (D) | MRSA (D) | – | M. luteus (C) | S. pneumoniae (D) | S. mutans (D) | E. coli (C) | P. mirabilis (C) | –
